Measurements reported in patent US20250090557A1 (priority 2020, published 2025).
Like-named read-outs stand apart in the source and are kept apart here.

Tests used:
Keap1 = Keap1 protein levels in Calu3 cells (flow cytometry); assay type: cell-based, human; settings: infected and uninfected Calu3, pretreatment, data not shown
[1] = humans, doses up to at least 80 mg/day for at least a year; cited from earlier work
SARS-CoV-2 [2] = experiment: SARS-CoV-2 infection of K18-hACE2 transgenic mice, lung viral titer; assay type: in vivo, mouse; settings: 4 mg/kg per day intraperitoneally, 72 h post infection
Procedure: K18-hACE2 transgenic mice were infected with SARS-CoV-2 (10,000 PFU per mouse) intranasally and treated with Mito-MES (4 mg/kg per day intraperitoneally) (n=10) vs vehicle control (Ctrl) (saline 1% DMSO) (n=5 mice). Five mice (n=5) were treated with Mito-MES for 48 h before SARS-COV-2 infection and throughout the infection for 3 days (5 days in total) until mice were sacrificed 72 h post infection. Five mice (n=5) were treated with Mito-MES 8 h after the infection for 3 days (3 days in total) until mice were sacrificed 72 h post infection. The left lung was harvested from all mice, tissue was homogenized in mechanical dissociator and the supernatant was cryopreserved until it was used for viral titer. Viral titer was determined by two independent methods based on cytopathic effect (CPE) effect in Vero-E6 cells and based on an ELISA immunoassay that detected the presence of SARS-CoV-2 Spike S protein in Vero-E6 cells infected with lung supernatants from infected mice. FIG. 7-a summarizes the results of the viral replication by TCID50-assay based on CPE method. FIG. 7-b summarizes the results of the viral replication by TCID50-assay based on ELISA assay. Bars indicate mean±s.e.m.
The in vivo antiviral activity of Mito-MES was evaluated in mice. […] Specifically, K18-hACE2 transgenic mice, which express human ACE2, were infected with SARS-CoV-2.

IL-6 [3] = assay type: cell-based, human
[4] = mice, tissues including liver and kidney, ≥10 days oral supplementation; cited from earlier work
SARS-CoV-2 [5] = assay type: cell-based
MAVS = MAVS protein levels in Calu3 cells (flow cytometry); assay type: cell-based, human; settings: total and SARS-CoV-2 infected Calu3 cells, data not shown
MX1 = assay type: cell-based, human; settings: infected Calu3, vs vehicle treated
TOM70 = TOM70 protein levels in Calu3 cells (flow cytometry, immunofluorescence); assay type: cell-based, human
Calu3 cells = experiment: Seahorse mitochondrial respirometry and cellular bioenergetics in infected Calu3 cells
Procedure: Flow cytometry was used to determine the cellular content of Calu3 cells for mitochondrial reactive oxygen species (mito-ROS) based on the median fluorescence intensity (MFI) of the fluorochrome MitoSOX Red and was compared to a negative cell population (fluorescence minus one negative control for staining) (ΔMFI). Flow cytometry was used to determine the percent of SARS-CoV-2 infected Calu3 cells positive for MitoSOX Red. Calu3 and Vero cells were treated with DMSO vehicle control (Ctrl) or the mitochondrial antioxidants MitoTEMPO (25-1000 nM) (72 h) or Mito-MES (25-1000 nM) (72 h) and were infected with a fluorescent mNeonGreen SARS-CoV-2 (icSARS-CoV-2-mNG) (MOI 0.3) (48 h). Immunofluorescent analysis of viral replication and cellular oxidative stress was performed at 48 h post-infection. […] Seahorse XF Analyzer was used to determine mitochondrial respirometry and cellular bioenergetics [oxygen consumption rate (OCR) and extracellular acidification rate (ECAR)] of live Calu3 cells treated with Mito-MES (25-1000 nM) or vehicle control (ctrl) (72 h) and infected with SARS-CoV-2 (MOI 0.1) (48 h). […] Viral replication was determined by TCID50-assay (FIG. 3-d), cell cytotoxicity was assessed by the XTT assay in uninfected cells treated with dTPP (0.01-10 μM) (72 h) (FIG. 3-e). […]

cleaved caspase 3 [6] = assay type: cell-based, African green monkey; settings: Vero
[7] = cited from earlier work
Nrf2 = Nrf2 protein levels in Calu3 cells (flow cytometry); assay type: cell-based, human; settings: infected and uninfected Calu3, pretreatment, data not shown
Vero cells = settings: uninfected Vero cultures, 10-1000 nM
IFN-β and IFN-λ = assay type: cell-based, human
[8] = tested on: ACE2, CD147, NRP1 and TMPRSS2; experiment: Host entry factor protein levels in Calu3 cells (flow cytometry); assay type: cell-based, human; settings: Calu3, compared to uninfected cells, data not shown
SARS-CoV-2 [9] = experiment: SARS-CoV-2 infection of air-liquid interface human airway epithelium cultures (flow cytometry); assay type: cell-based; settings: 100 nM, 72 h
[10] = tested on: mitochondrial reactive oxygen species (mito-ROS); assay type: cell-based, human
SARS-CoV-2 [11] = experiment: SARS-CoV-2 infection of HEK293T-hACE2 cells (flow cytometry); assay type: cell-based; settings: HEK293T-hACE2, 100 nM, 72 h
cleaved caspase 3 [12] = assay type: cell-based, human
STING = STING protein levels in Calu3 cells (flow cytometry); assay type: cell-based, human; settings: SARS-CoV-2 infected Calu3 cells, data not shown
[13] = Toxicity and mutagenicity in mice; settings: mouse, in vivo
IL-1β = assay type: cell-based, human; settings: infected Calu3 supernatants
SARS-CoV-2 [14] = assay type: cell-based; remark: listed apart in the source
IL-6 [15] = assay type: cell-based, African green monkey

## COC1=C(OC)C(=O)C(CCCCCCCCCC[P+](c2ccccc2)(c2ccccc2)c2ccccc2)=C(C)C1=O.CS(=O)(=O)[O-] [Mito-MES, 10-(4,5-dimethoxy-2-methyl-3,6-dioxo-1,4-cyclohexadienyl) decyl triphenylphosphonium methanesulfonate]
Keap1
  protein levels of Keap: reduced protein levels of Keap
[1]
  adverse events: without any serious adverse events
SARS-CoV-2 [2]
  lung viral titers (TCID50 by CPE and ELISA) compared to vehicle: viral titers were lower
IL-6 [3]
  secretion of IL-6 resulting from SARS-CoV-2 infection (ELISA): attenuated the increase in secretion of IL-6
[4]
  accumulation in tissues: 50 to 700 pmol/g (wet weight)
SARS-CoV-2 [5]
  antiviral activity by immunofluorescence (spike S protein): modest antiviral activity
SARS-CoV-2 [5]; Vero cells
  viral genomic RNA in cell lysates (qPCR): confirmed by qPCR
SARS-CoV-2 [5]; Vero cells, viable single cells
  percent of infected cells positive for N protein and Spike S protein (flow cytometry): reduced the percent of infected cells
SARS-CoV-2 [5]; Vero cells, vs 5 μM remdesivir
  antiviral activity relative to positive control remdesivir (TCID50): modest compared to 5 μM remdesivir
MAVS
  MAVS protein levels: did not modulate MAVS protein levels
MX1
  MX1 protein levels: increased MX1 protein levels
TOM70
  TOM70 protein levels (flow cytometry): increased TOM70 protein levels
  TOM70 protein levels (immunofluorescence): dose-dependent increase in TOM70 protein levels
Calu3 cells; Calu3, 1000 nM
  ROS: increased ROS
Calu3 cells; Calu3, 50-1000 nM
  mitochondrial respirometry: reduced mitochondrial respirometry
Cleaved caspase 3 [6]; 100 nM
  percent of infected cells positive for cleaved caspase 3 and MFI per cell (flow cytometry): inhibits or reduces SARS-CoV-2-induced increase
Cleaved caspase 3 [6]; 10-1000 nM
  SARS-CoV-2-induced cleavage of caspase 3 (immunofluorescence): reduced by Mito-MES treatment
[7]; chronic supplementation about 40-80 mg/day, after about 10 days
  average elevation of fasting plasma concentrations: about 5 ng/mL
[7]; humans, single 40 mg oral dose, after 24 h
  plasma concentration: about 2 ng/ml
Nrf2
  protein levels of Nrf2: did not impact protein levels of Nrf2
Vero cells
  cytotoxicity (XTT assay): no observed cytotoxicity
IFN-β and IFN-λ; infected Calu3, 100-1000 nM
  total cellular IFN-β and IFN-λ protein levels (ELISA, lysates): independently confirmed
IFN-β and IFN-λ; infected Calu3, 48 h post infection, 100-1000 nM
  secretion of IFN-β and IFN-λ (ELISA, supernatants): did not
[8]
  protein levels of ACE2, TMPRSS2, NRP1 and CD147: Neither SARS-CoV-2 infection nor Mito-MES significantly modulates
SARS-CoV-2 [9]; ALI HAE cultures
  percent of SARS-CoV-2 infected FOXJ1+ ciliated epithelial cells (flow cytometry): significantly reduced the percent of SARS-CoV-2 infected human FOXJ1^+ ciliated epithelial cells
SARS-CoV-2 [9]; primary HAE ALI cultures
  percent of SARS-CoV-2 infected human lung epithelial cells (flow cytometry): significantly reduced the percent of SARS-CoV-2 infected human lung epithelial cells
[10]
  mito-ROS generation (MitoSOX Red MFI and percent positive cells): reduced mito-ROS generation
SARS-CoV-2 [11]
  percent of SARS-CoV-2 infected cells (flow cytometry): significantly reduced the percent of SARS-CoV-2 infected human non-cancerous HEK293T epithelial cells
Cleaved caspase 3 [12]; Calu3, 100 nM
  percent of infected cells positive for cleaved caspase 3 and MFI per cell (flow cytometry): inhibits or reduces SARS-CoV-2-induced increase
Cleaved caspase 3 [12]; Calu3, 10-1000 nM
  SARS-CoV-2-induced cleavage of caspase 3 (immunofluorescence): reduced by Mito-MES treatment
STING
  STING protein levels: did not impact STING
[13]
  human equivalent dose relative to the doses administered to A1 and A2 (20 mg/day): about 60 fold
IL-1β
  secretion of IL-1β (Luminex): tended (p=0.09) to reduce the secretion of IL-IP
SARS-CoV-2 [14]; Calu3
  concentration at which potent antiviral activity is exhibited (immunofluorescence and PCR): ≤ 10 nM
SARS-CoV-2 [14]; Calu3, 10 nM Mito-MES alone
  viral titers vs vehicle control (TCID50): reduced viral titers
SARS-CoV-2 [14]; Calu3, 100 nM and 1000 nM
  reduction of release of progeny virus (TCID50 of cell supernatants): > 2 logs
IL-6 [15]
  secretion of IL-6 resulting from SARS-CoV-2 infection (ELISA): attenuated the increase in secretion of IL-6
